From US5760036A, “Aminediol protease inhibitors” (E. R. Squibb & Sons, Inc., priority 1995, dated 1998)

Molecular target: T1, HIV protease (Human immunodeficiency virus type 1 group M subtype B, UniProt P04585)
T1 construct: and purified protease
Assay: HIV Protease Assay
Type: biochemical
Details: 4% DMSO, 450 μM substrate, pH 5.5, 30 minutes at 37° C., RP-HPLC; for inhibition at 10 µM: pH 5.5, 10 μM inhibitor, read-out: HIV Protease % Inhibition at 10 μM; for HIV Protease % Inhibition at 10 μM: 10 μM inhibitor
Experimental: An HIV protease standard assay was performed in a 60 μl reaction medium containing 50 mM sodium acetate, pH 5.5, 100 μg/ml bovine serum albumen,450 μM substrate (H2 N-Val-Ser-Gln-Asn-(β-naphthyl-alanine)-Pro-Val-Ile-OH), and purified protease. The reaction medium was incubated for 30 minutes at 37° C., quenched by the addition of 140 μl 5% H3 PO4, then analyzed by reverse phase HPLC using UV220 detection. In a typical control assay, 7% of the substrate was hydrolyzed. Aminediol inhibitors of the present invention, listed in the following Table 1, were then employed in the assay, for which purpose they were prepared as a […] solution in DMSO, then diluted to 30 μM with 50 mM sodium acetate/bovine serum albumen. This working stock was then diluted three-fold into the protease reaction medium, for a final concentration of 10 μM inhibitor and 4% DMSO.

inhibition at 10 µM [%]	HIV Protease % Inhibition at 10 μM [%]	Structure (SMILES)
85	–	CC(C)(C)OC(=O)N[C@@H](Cc1ccccc1)[C@H](O)CNC[C@@H](O)[C@H](Cc1ccccc1)NC(=O)OCc1nc(-c2ccccc2)c[nH]1 [Compound 253, [R-(R*,S*)]-[Iminobis[2-hydroxy-1-(phenylmethyl)-3,1-propanediyl)]biscarbamic acid, 1,1-dimethylethyl(4-phenyl-1H-imidazol-2-yl)methyl ester]
41	–	CC(C)(C)OC(=O)N[C@@H](Cc1ccccc1)[C@H](O)CNC[C@H](O)[C@@H](Cc1ccccc1)NC(=O)OC(C)(C)C [Compound 26ii, [1R-[1R*,2S*(2R*,3S*)]]-3-[[3-[[(1,1-Dimethylethoxy)carbonyl]amino]-2-hydroxy-4-phenylbutyl]amino]-2-hydroxy-1-(phenylmethyl)-propyl]carbamic acid, 1,1-dimethylethyl ester]
97	–	CC(C)(C)OC(=O)N[C@@H](Cc1ccccc1)[C@H](O)CNC[C@@H](O)[C@H](Cc1ccccc1)NC(=O)C1(O)CCCCC1(C)C (single isomer, unassigned; isomer a) [Compound 361, [1S-[1R*,2S*(2S*,3R*)]]-[3-[[3-[[2 , 2-Dimethyl-1-hydroxycyclohexyl)carbonyl]amino]-2-hydroxy-4-phenylbutyl]amino]-2-hydroxy-1-(phenylmethyl) propyl]carbamic acid, 1,1-dimethylethyl ester, isomer A]
80 to 99	–	CC(C)(C)OC(=O)N[C@@H](Cc1ccccc1)[C@H](O)CNC[C@@H](O)[C@H](Cc1ccccc1)NC(=O)[C@@H](NC(=O)OCc1ccccc1)c1ccccc1 [Compound 94, [1S-[1R* [1R*,2S* (2S*,3R*)]]]-[2-[[3-[[3-[[(1,1-Dimethylethoxy)carbonyl]amino]-2-hydroxy-4-phenylbutyl]amino]-2-hydroxy-1-(phenylmethyl)propyl]amino]-2-oxo-1-phenylethyl]carbamic acid, phenylmethyl ester]
99	–	COC(=O)N[C@H](C(=O)N[C@@H](Cc1ccccc1)[C@H](O)CNC[C@@H](O)[C@H](Cc1ccccc1)NC(=O)[C@](C)(O)C(C)(C)C)C(C)(C)C (relative stereo) [Compound 383, [1R*,2S*[2S*, 3R*(S*)]]-N-[2-Hydroxy-3-[[2-hydroxy-3-[(2-hydroxy-2,3,3-trimethyl-1-oxobutyl)amino]-4-phenylbutyl]amino]-1-(phenylmethyl)propyl]-N^2-(2-methoxycarbonyl)-3-methyl-L-valinamide]
30	–	CO[C@H](CNC[C@@H](O)[C@H](Cc1ccccc1)NC(=O)OC(C)(C)C)[C@H](Cc1ccccc1)NC(=O)OC(C)(C)C [Compound 142, [1S-[1R*,2S*(2S*,3R*)]]-[3-[[3-[[(1,1-Dimethylethoxy)carbonyl]amino]-2-hydroxy-4-phenylbutyl]amino]-2-methoxy-1-(phenylmethyl)propyl]carbamic acid 1,1-dimethylethyl ester]
8	–	CC(C)(C)OC(=O)N1CCC[C@H]1C(O)CNCC(O)[C@@H]1CCCN1C(=O)OC(C)(C)C (single isomer, unassigned) [Compound 7]
–	89	CC(C)(C)OC(=O)N[C@@H](Cc1ccccc1)[C@H](O)CNC[C@@H](O)[C@H](Cc1ccccc1)NC(=O)C(C)(O)C(F)(F)F (single isomer, unassigned; isomer b) [Compound 294, [1S-[1R*,2S*(2S*,3R*)]]-[2-Hydroxy-3-[2-hydroxy-1-oxo-2-(trifluoromethyl)propyl]amino]-4-phenylbutyl]amino]-1-(phenylmethyl)propyl]carbamic acid, 1,1-dimethylethylester (isomer B)]
71	–	CC(C)(C)OC(=O)N[C@@H](Cc1ccccc1)[C@H](O)CNC[C@@H](O)[C@H](Cc1ccccc1)NC(=O)C(OCc1ccccc1)C(C)(C)C (stereo partly drawn) [Compound 106, [1S-[1R*,2S* (2S*,3R*)]]-3-[[3-[[3,3-Dimethyl-1-oxo-2-(phenylmethoxy)butyl)butyl]amino]-2-hydroxy-4-phenylbutyl]amino]-2-hydroxy-1-(phenyl-methyl)propyl]carbamic acid, 1,1-dimethylethyl ester]
46	–	CC(C)(C)CS(=O)(=O)N[C@@H](Cc1ccccc1)[C@H](O)CNC[C@@H](O)[C@H](Cc1ccccc1)NC(=O)OC(C)(C)C [Compound 181, [1S-[1R*,2S*(2S*,3R*)]]-[3-[[3-[[(2,2-Dimethy]propyl)sulfonyl]amino]-2-hydroxy-4-phenylbutyl]amino]-2-hydroxy-1-(phenylmethyl)propyl]carbamic acid 1,1-dimethylethyl ester]
19	–	CC(C)(C)OC(=O)N[C@@H](Cc1ccccc1)[C@@H](O)CNCC(O)[C@@H](Cc1ccccc1)NC(=O)OC(C)(C)C (stereo partly drawn) [Compound 27, [1S-[1R*,2R*(3S*)]]-[3-[[3-[[(1,1-Dimethylethoxy)carbonyl]amino]-2-hydroxy-4-phenylbutyl]amino]-2-hydroxy-1-(phenylmethyl)propyl]-carbamic acid 1,1-dimethylethyl ester]
0	–	CC(C)(C)OC(=O)N[C@@H](Cc1ccccc1)[C@H](O)CN[C@@H](Cc1ccccc1)C(O)CNC(=O)OCc1ccccc1 (stereo partly drawn) [Compound 186, [3S-[3R*,2(R*,S*) [2S*,3R*)]-3-[[3-(1,1-Dimethylethoxy)carbonyl]amino]-2-hydroxy-4-phenylbutyl]amino]-2-hydroxy-4-phenylbuty 1]carbamic acid, phenylmethyl ester]
–	50	CC(C)(C)OC(=O)N[C@@H](Cc1ccccc1)[C@H](O)CNC[C@@H](O)[C@H](Cc1ccccc1)NC(=O)C(O)(CO)C(C)(C)C (single isomer, unassigned; isomer b) [Compound 367, [1S-[1R*,2S*(2S*,3R*)]]-[3-[[3-[[2-Hydroxy-2-(hydroxymethyl)-3.3-dimethyl-l-oxobutyl]amino]-2-hydroxy-4-phenylbutyl]amino]-2-hydroxy-1-(phenylmethyl)propyl]carbamic acid. 1.1-dimethylethyl ester, isomer B]
10	–	CC(C)[C@H](NC(=O)OCc1ccccc1)C(=O)N[C@@H](Cc1ccccc1)[C@@H](O)CNC[C@H](O)[C@H](Cc1ccccc1)NC(=O)[C@@H](NC(=O)OCc1ccccc1)C(C)C [Compound 119, [S-(1R*,2R*)]-N,N'-[Iminobisr[2-hydroxy-1-(phenylmethyl)-3,1-propanediyl]]bis[N^2-[phenylmethyloxy)carbonyl]-L-valinamidel]
89	–	CC(C)(C)OC(=O)N[C@@H](Cc1ccccc1)[C@H](O)CNC[C@@H](O)[C@H](Cc1ccccc1)NC(=O)[C@@H](O)C(C)(C)C [Compound 335, [1S-[1R*,2S*[2S*,3R*(R*)]]]-[3-[[3-[(2-Hydroxy-3,3-dimethyl-1-oxobutyl)amino]-2-hydroxy-4-phenylbutyl]amino]-2-hydroxy-1-(phenylmethyl)propyl]carbamic acid, 1,1-dimethylethyl ester]
99	–	CC(C)[C@@H](NC(=O)NCc1nc2ccccc2[nH]1)C(=O)N[C@@H](Cc1ccccc1)[C@H](O)CNC[C@@H](O)[C@H](Cc1ccccc1)NC(=O)OC(C)(C)C (relative stereo) [Compound 274, [1S*,2R*(2R*,3S*)]-N^2-[[(1H-Benzimidazol-2-ylmethyl)amino]carbonyl]-N-[3-[[3-[[(1,1-dimethylethoxy)carbonyl]amino]-2-hydroxy-4-phenylbutyl]amino]-2-hydroxy-1-(phenylmethyl)propyl]-D-valinamide]
< 16	–	CC(C)(C)OC(=O)NC[C@@H](O)[C@@H](Cc1ccccc1)NC[C@@H](O)[C@H](Cc1ccccc1)NC(=O)OC(C)(C)C [Compound 190, [2R-[2R*,3R*(2R*,3S*)]]-[3-[[3-[[(1,1-Dimethylethoxy)carbonyl]amino]-2-hydroxy-4-phenyl-butyl]amino]-2-hydroxy-4-phenylbutyl]carbamic acid, 1,1-dimethylethyl ester]
1	–	CC(C)(C)OC(=O)N1Cc2ccccc2C[C@H]1[C@H](O)CNC[C@H](O)[C@@H]1Cc2ccccc2CN1C(=O)OC(C)(C)C [Compound 12, [S-(R*,R*)]-3-[2-[[[-(R*,S*)]-2-[2-[(1,1-Dimethylethoxy)carbonyl]-1,2,3,4-tetrahydro-3-isoquinolinyl]-2-hydroxyethyl]amino]-1-hydroxyethyl]-3,4-dihydro-2(1H)-isoquinolinecarboxylic acid, (1,1-dimethylethyl) ester]
–	28	COC(=O)NC(C)(C(=O)N[C@@H](Cc1ccccc1)[C@H](O)CNC[C@@H](O)[C@H](Cc1ccccc1)NC(=O)OC(C)(C)C)C(C)(C)C (single isomer, unassigned; isomer b) [Compound 374, [1S-[1R*,2S*(2S*, 3R*)]]-[1-[[[3-[[3-[[(1,1-Dimethylethoxy)carbonyl]amino]-2-hydroxy-4-phenylbutyl]amino]-2-hydroxy-1-(phenylmethyl)propyl]amino]carbonyl]-1,2-dimethylpropyl]carbamic acid, methyl ester, isomer B]

Structure (SMILES)	inhibition at 10 µM [%]	HIV Protease % Inhibition at 10 μM [%]
CC(C)(C)OC(=O)N[C@@H](Cc1ccccc1)[C@H](O)CNC[C@@H](O)[C@H](Cc1ccccc1)NC(=O)C1(O)CCc2ccccc21 (single isomer, unassigned; isomer a) [Compound 375, [1S-[1R*,2S*(2S*, 3R*)]]-[3-[[3-]](2,3-Dihydro-1-hydroxy-1H-inden-1-yl)carbonyl]amino]-2-hydroxy-4-phenylbutyl]amino]-2-hydroxy-1-(phenylmethyl)-propyl]carbamic acid, 1,1-dimethylethyl ester, isomer A]	–	98
